Key:
Details in all cases: crude E. coli lysate 70 µg/mL protein, 0.1 M Na-phosphate pH 7, 37 °C
CE = target: T1, CE (Brettanomyces bruxellensis, UniProt A0A7D9GZZ0); test: p-nitrophenol release, absorbance […] nm; assay type: biochemical
T1 construct: gene DEBR0S1_34310G; crude lysate

tEstA = target: T2, tEstA (Pseudomonas aeruginosa, UniProt O33407); test: p-nitrophenol release, absorbance […] nm; assay type: biochemical
T2 construct: gene estA; crude lysate

AcAlT = target: T3, AcAlT (Komagataella phaffii, UniProt C4QX24); test: p-nitrophenol release, absorbance […] nm; assay type: biochemical
T3 construct: gene PAS_chr1-1_0419; codon-optimized gene in pET15b (pAPS07), E. coli BL21-DE3 strain SSL26; crude lysate
T3 sequence (C4QX24 1-452): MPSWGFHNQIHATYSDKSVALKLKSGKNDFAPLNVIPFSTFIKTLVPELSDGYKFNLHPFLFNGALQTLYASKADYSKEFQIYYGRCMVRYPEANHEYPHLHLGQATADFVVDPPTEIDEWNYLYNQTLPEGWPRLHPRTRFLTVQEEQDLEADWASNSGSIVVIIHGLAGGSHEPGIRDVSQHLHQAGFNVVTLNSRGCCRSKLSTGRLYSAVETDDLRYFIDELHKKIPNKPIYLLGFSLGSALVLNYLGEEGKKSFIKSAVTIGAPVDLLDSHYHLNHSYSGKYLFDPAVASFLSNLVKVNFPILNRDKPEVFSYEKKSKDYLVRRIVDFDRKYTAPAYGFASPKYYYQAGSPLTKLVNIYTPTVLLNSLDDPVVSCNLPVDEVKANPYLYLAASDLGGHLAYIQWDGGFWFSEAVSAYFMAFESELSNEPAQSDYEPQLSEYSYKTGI

EEB1 = EEB1 (Saccharomyces cerevisiae, UniProt Q02891)
EEB1, sequence (Q02891 whole entry): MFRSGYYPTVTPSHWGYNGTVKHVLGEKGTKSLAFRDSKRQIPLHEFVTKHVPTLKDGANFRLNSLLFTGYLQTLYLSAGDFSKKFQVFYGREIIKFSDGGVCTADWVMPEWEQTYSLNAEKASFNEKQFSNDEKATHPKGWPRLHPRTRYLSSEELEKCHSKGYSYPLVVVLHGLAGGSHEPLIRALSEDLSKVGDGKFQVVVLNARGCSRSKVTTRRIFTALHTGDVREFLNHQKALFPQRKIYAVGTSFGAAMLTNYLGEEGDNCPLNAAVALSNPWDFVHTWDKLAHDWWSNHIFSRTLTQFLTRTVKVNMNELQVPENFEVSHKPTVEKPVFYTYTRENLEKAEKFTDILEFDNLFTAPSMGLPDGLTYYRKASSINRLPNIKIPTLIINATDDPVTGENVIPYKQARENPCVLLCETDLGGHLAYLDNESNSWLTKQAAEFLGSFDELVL

T2 sequence (O33407 25-646): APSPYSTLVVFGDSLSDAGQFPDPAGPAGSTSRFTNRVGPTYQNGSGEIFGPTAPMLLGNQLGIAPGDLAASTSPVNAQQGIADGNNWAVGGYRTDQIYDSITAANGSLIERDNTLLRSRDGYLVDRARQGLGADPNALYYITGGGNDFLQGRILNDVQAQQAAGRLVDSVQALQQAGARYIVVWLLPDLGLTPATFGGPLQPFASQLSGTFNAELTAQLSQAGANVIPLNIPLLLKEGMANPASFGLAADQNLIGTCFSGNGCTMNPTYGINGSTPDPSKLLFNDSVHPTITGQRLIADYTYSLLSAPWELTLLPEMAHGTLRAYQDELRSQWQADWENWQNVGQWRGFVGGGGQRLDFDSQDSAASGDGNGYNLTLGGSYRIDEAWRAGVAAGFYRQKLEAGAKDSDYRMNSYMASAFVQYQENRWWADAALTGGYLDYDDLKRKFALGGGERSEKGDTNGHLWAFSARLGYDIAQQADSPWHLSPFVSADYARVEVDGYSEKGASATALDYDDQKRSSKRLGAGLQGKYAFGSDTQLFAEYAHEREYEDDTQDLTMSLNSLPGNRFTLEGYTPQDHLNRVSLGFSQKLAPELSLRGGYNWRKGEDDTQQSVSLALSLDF
T1 sequence (A0A7D9GZZ0 entry or part of it): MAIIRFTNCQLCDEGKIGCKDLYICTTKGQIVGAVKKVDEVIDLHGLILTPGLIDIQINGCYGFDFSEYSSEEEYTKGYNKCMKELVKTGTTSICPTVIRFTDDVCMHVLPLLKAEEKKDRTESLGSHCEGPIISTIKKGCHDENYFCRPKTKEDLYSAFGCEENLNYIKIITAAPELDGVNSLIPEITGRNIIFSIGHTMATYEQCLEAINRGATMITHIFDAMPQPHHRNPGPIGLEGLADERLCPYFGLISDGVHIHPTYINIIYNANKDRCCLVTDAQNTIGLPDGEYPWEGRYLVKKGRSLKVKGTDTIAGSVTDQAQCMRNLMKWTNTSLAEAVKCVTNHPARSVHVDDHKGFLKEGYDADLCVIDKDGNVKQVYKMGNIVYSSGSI

**Q.** With CC(=O)Oc1ccc([N+](=O)[O-])cc1 [p-nitrophenyl acetate] as the compound, how does the KM (CE) read?
**A.** CE and tEstA, on the other hand, indicated relatively moderate hydrolysis activity with higher KM

**Q.** And the KM (tEstA)?
**A.** CE and tEstA, on the other hand, indicated relatively moderate hydrolysis activity with higher KM

**Q.** And the KM (AcAlT)?
**A.** AcAlT, despite being acyltransferase, showed the second highest efficiency and relatively lower KM

**Q.** And the KM (EEB1)?
**A.** KM values revealed that EEB1 exhibited the highest catalytic efficiency for pNPA hydrolysis
